Each structure is given as a SMILES string. Structures can show the parent of a compound that is named as a salt.

Here are results for 23 molecules from patent publication US20220396565A1 (Hoffmann-La Roche Inc., priority 2020, published 2022).

The first assay deals with Acinetobacter baumannii ATCC17961. As to the kind of experiment: Antimicrobial susceptibility testing: 90% growth inhibitory concentration (IC90) determination, Iso-Sensitest broth. It counts as cell-based. The conditions noted are these: 90% growth inhibitory concentration, Acinetobacter baumannii ATCC17961, Iso-Sensitest broth; read-out: ATCC 17961 IC90. The essentials:
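Growth at OD600 was monitored every 20 min for 16 h at 35±2 °C, with bacteria inoculated at ~5×10^(5) CFU/ml into Iso-Sensitest medium. Compounds were tested as 10-point twofold dilutions (e.g. 10–0.02 μM final). The 90% inhibitory concentration comes from the log-phase growth.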
As for `COc1ccc(-c2cnc(C(=O)Nc3ccc(C(=O)N4CCN(C(=O)C5CCN(S(=O)(=O)CCN)CC5)CC4)c(Cl)c3)n2C)c(F)c1F` [Example 242, N-[4-[4-[1-(2-aminoethylsulfonyl)pipe-ridine-4-carbonyl]piperazine-1-carbonyl]-3-chloro-phenyl]-5-(2,3-difluoro-4-methoxy-phenyl)-1-methyl-imidazole-2-carboxamide], the IC90 (in general, the concentration needed for an effect of 90%) is 90 nM.

The same assay, now with this note: Acinetobacter baumannii, ATCC17961, 90% growth inhibitory concentration, Acinetobacter baumannii ATCC17961, Iso-Sensitest broth; read-out: ATCC 17961 IC90.
As to `COc1ccc(-c2cnc(C(=O)Nc3ccc(C(=O)N4CCN(C(=O)[C@@H]5CCNC[C@H]5O)CC4)c(Cl)c3)n2C)c(F)c1F` [Example 230, N-[3-chloro-4-[4-[(3S,4R)-3-hydroxypiperidine-4-carbonyl]piperazine-1-carbonyl]phenyl]-5-(2,3-difluoro-4-methoxy-phenyl)-1-methyl-imidazole-2-carboxamide formate], the 90% effect concentration (IC90) was 100 nM. For `COc1ccc(-c2cnc(C(=O)Nc3ccc(C(=O)N4CCN(C(=O)[C@H]5CCNC[C@@H]5O)CC4)c(Cl)c3)n2C)c(F)c1F` [Example 231, N-[3-chloro-4-[4-[(3R,4S)-3-hydroxypiperidine-4-carbonyl]piperazine-1-carbonyl]phenyl]-5-(2,3-difluoro-4-methoxy-phenyl)-1-methyl-imidazole-2-carboxamide formate], the IC90 turned out to be 160 nM.

Consider `COc1ccc(-c2cnc(C(=O)Nc3ccc(C(=O)N4CCN(C(=O)[C@@H]5C[C@](C)(O)CN5)CC4)c(Cl)c3)n2C)c(F)c1F` [Example 232, N-[3-chloro-4-[4-[(2S,4S)-4-hydroxy-4-methyl-pyrrolidine-2-carbonyl]piperazine-1-carbonyl]phenyl]-5-(2,3-difluoro-4-methoxy-phenyl)-1-methyl-imidazole-2-carboxamide formate], for which the concentration for an effect of 90% (IC90) was 90 nM. In the case of `CC[C@@]1(O)CN[C@H](C(=O)N2CCN(C(=O)c3ccc(NC(=O)c4ncc(-c5ccc(OC)c(F)c5F)n4C)cc3Cl)CC2)C1` [Example 233, N-[3-chloro-4-[4-[(2S,4S)-4-ethyl-4-hydroxy-pyrrolidine-2-carbonyl]piperazine-1-carbonyl]phenyl]-5-(2,3-difluoro-4-methoxy-phenyl)-1-methyl-imidazole-2-carboxamide formate], the IC90 was found to be 130 nM. As for `COc1ccc(-c2cnc(C(=O)Nc3ccc(C(=O)N4CCN(C(=O)[C@@H]5CCNC[C@@H]5O)CC4)c(C)c3)n2C)c(F)c1F` [Example 234, 5-(2,3-difluoro-4-methoxy-phenyl)-N-[4-[4-[(3R,4R)-3-hydroxypiperidine-4-carbonyl]piperazine-1-carbonyl]-3-methyl-phenyl]-1-methyl-imidazole-2-carboxamide formate], the 90% effect concentration (IC90) amounted to 180 nM. Same read-out and setting: with `COc1ccc(-c2cnc(C(=O)Nc3ccc(C(=O)N4CCC(NS(=O)(=O)CCN)CC4)c(Cl)c3)n2C)c(F)c1F` [Example 236, N-[4-[4-(2-aminoethylsulfonylami-no)piperidine-1-carbonyl]-3-chloro-phenyl]-5-(2,3-difluoro-4-methoxy-phenyl)-1-methyl-imidazole-2-carboxamide] the figure was 60 nM; with `COc1ccc(-c2cnc(C(=O)Nc3ccc(C(=O)N4CCC(NS(=O)(=O)C5CCNC5)CC4)c(Cl)c3)n2C)c(F)c1F` (centres unmarked) [Example 237, N-[3-chloro-4-[4-(pyrrolidin-3-ylsulfonylamino)piper-idine-1-carbonyl]phenyl]-5-(2,3-difluoro-4-methoxy-phenyl)-1-methyl-imidazole-2-carboxamide], 50 nM; with `COc1ccc(-c2cnc(C(=O)Nc3ccc(C(=O)N4CCC(NS(C)(=O)=O)CC4)c(Cl)c3)n2C)c(F)c1F` [Example 238, N-[3-chloro-4-[4-(methanesulfonamido)piperidine-1-carbonyl]phenyl]-5-(2,3-difluoro-4-methoxy-phenyl)-1-methyl-imidazole-2-carboxamide], 130 nM. The same measure, in the same setting: the same measure for `COc1ccc(-c2cnc(C(=O)Nc3ccc(C(=O)N4CCN(S(=O)(=O)CCN)CC4)c(Cl)c3)n2C)c(F)c1F` [Example 239, N-[4-[4-(2-aminoethylsulfonyl)piper-razine-1-carbonyl]-3-chloro-phenyl]-5-(2,3-difluoro-4-methoxy-phenyl)-1-methyl-imidazole-2-carboxamide]: 150 nM; for `COc1ccc(-c2cnc(C(=O)Nc3ccc(C(=O)N4CCN(S(C)(=O)=O)CC4)c(Cl)c3)n2C)c(F)c1F` [Example 240, N-[3-chloro-4-(4-methylsulfonylpiperazine-1-carbonyl)phenyl]-5-(2,3-difluoro-4-methoxy-phenyl)-1-methyl-imidazole-2-carboxamide]: 320 nM; for `COc1ccc(-c2cnc(C(=O)Nc3ccc(C(=O)N4CCN(S(=O)(=O)C5CCNC5)CC4)c(Cl)c3)n2C)c(F)c1F` (centres unmarked) [Example 241, N-[3-chloro-4-(4-pyrrolidin-3-ylsulfonylpiperazine-1-carbonyl)phenyl]-5-(2,3-difluoro-4-methoxy-phenyl)-1-methyl-imidazole-2-carboxamide]: 150 nM.

As for `COc1ccc(-c2cnc(C(=O)Nc3ccc(C(=O)N4CCN(CC(N)=O)CC4)c(Cl)c3)n2C)c(F)c1F` [Example 244, N-[4-[4-(2-amino-2-oxo-ethyl)piperazine-1-carbonyl]-3-chloro-phenyl]-5-(2,3-difluoro-4-methoxy-phenyl)-1-methyl-imidazole-2-carboxamide], the 90% effect concentration (IC90) came out at 100 nM. For the molecule `COc1ccc(-c2cnc(C(=O)Nc3ccc(C(=O)N4CCN(C(=O)CCOCCN)CC4)c(Cl)c3)n2C)c(F)c1F` [Example 246, N-[4-[4-[3-(2-aminoethoxy)propanoyl]piperazine-1-carbonyl]-3-chloro-phenyl]-5-(2,3-difluoro-4-methoxy-phenyl)-1-methyl-imidazole-2-carboxamide formate], the IC90 is 100 nM. The same measure, in the same setting: with `Cn1c(-c2ccc(OCF)c(Cl)c2F)cnc1C(=O)Nc1ccc(C(=O)N2CCN(C(=O)[C@@H]3C[C@@H](O)CN3)CC2)c(Cl)c1` [Example 247, 5-[3-chloro-2-fluoro-4-(fluoromethoxy)phenyl]-N-[3-chloro-4-[4-[(2S,4R)-4-hydroxypyrrolidine-2-carbonyl]piperazine-1-carbonyl]phenyl]-1-methyl-imidazole-2-carboxamide] the figure was 30 nM; with `Cc1cc(NC(=O)c2ncc(-c3ccc(OCF)c(Cl)c3F)n2C)ccc1C(=O)N1CCN(C(=O)[C@@H]2C[C@@H](O)CN2)CC1` [Example 248, 5-[3-chloro-2-fluoro-4-(fluoromethoxy)phenyl]-N-[4-[4-[(2S,4R)-4-hydroxypyrrolidine-2-carbonyl]piperazine-1-carbonyl]-3-methyl-phenyl]-1-methyl-imidazole-2-carboxamide], 50 nM; with `Cn1c(-c2ccc(OC(F)F)c(F)c2F)cnc1C(=O)Nc1ccc(C(=O)N2CCN(C(=O)C3CCNCC3)CC2)c(Cl)c1` [Example 249, N-[3-chloro-4-[4-(piperidine-4-carbonyl)piperazine-1-carbonyl]phenyl]-5-[4-(difluoromethoxy)-2,3-difluoro-phenyl]-1-methyl-imidazole-2-carboxamide formate], 30 nM. As to `COc1ccc(-c2cnc(C(=O)Nc3ccc(C(=O)N4CCC(C(=O)NC5CNC5)CC4)c(Cl)c3)n2C)c(F)c1F` [Example 250, N-(azetidin-3-yl)-1-[2-chloro-4-[[5-(2,3-difluoro-4-methoxy-phenyl)-1-methyl-imidazole-2-carbonyl]amino]benzoyl] piperidine-4-carboxamide trifluoroacetate], the IC90 amounted to 80 nM. In the case of `Cn1c(-c2ccc(OCC#N)c(F)c2Cl)cnc1C(=O)Nc1ccc(C(=O)N2CCN(C(=O)C3(O)CCNCC3)CC2)c(Cl)c1` [Example 251, 5-[2-chloro-4-(cyanomethoxy)-3-fluoro-phenyl]-N-[3-chloro-4-[4-(4-hydroxypiperidine-4-carbonyl)piperazine-1-carbonyl]phenyl]-1-methyl-imidazole-2-carboxamide formate], the IC90 was 50 nM. As to `Cn1c(-c2ccc(OCC#N)c(F)c2Cl)cnc1C(=O)Nc1ccc(C(=O)N2CCN(C(=O)C3CCNCC3)CC2)c(Cl)c1` [Example 252, 5-[2-chloro-4-(cyanomethoxy)-3-fluoro-phenyl]-N-[3-chloro-4-[4-(piperidine-4-carbonyl)piperazine-1-carbonyl]phenyl]-1-methyl-imidazole-2-carboxamide formate], the IC90 is 60 nM.

In the case of `Cn1c(-c2ccc(OCC#N)c(F)c2Cl)cnc1C(=O)Nc1ccc(C(=O)N2CCN(C(=O)[C@H]3CCNC3)CC2)c(Cl)c1` [Example 253, 5-[2-chloro-4-(cyanomethoxy)-3-fluoro-phenyl]-N-[3-chloro-4-[4-[(3S)-pyrrolidine-3-carbonyl]piperazine-1-carbonyl]phenyl]-1-methyl-imidazole-2-carboxamide formate], the IC90 turned out to be 50 nM.

Still in this assay, the particulars now being: Acinetobacter baumannii, ATCC17961, read-out: ATCC 17961 IC90.
Consider `COc1ccc(-c2cnc(C(=O)Nc3ccc(C(=O)N4CCC(NS(=O)(=O)C5CCNCC5)CC4)c(Cl)c3)n2C)c(F)c1F` [Example 235, N-[3-Chloro-4-[4-(4-piperidylsulfonylamino)piperidine-1-carbonyl]phenyl]-5-(2,3-difluoro-4-methoxy-phenyl)-1-methyl-imidazole-2-carboxamide formate], for which the IC90 was 60 nM.

As to `Cn1c(-c2ccc(OC(F)F)c(F)c2F)cnc1C(=O)Nc1ccc(C(=O)N2CCC(C(=O)NCC3CNC3)CC2)c(Cl)c1` [Example 245, N-(Azetidin-3-ylmethyl)-1-[2-chloro-4-[[5-[4-(difluoromethoxy)-2,3-difluoro-phenyl]-1-methyl-imidazole-2-carbonyl]amino]benzoyl]piperidine-4-carboxamide trifluoroacetate], the IC90 worked out at 30 nM.
